Laboratory results as given in patent publication US10266520B2, “Bisamidinium-based inhibitors for the treatment of myotonic dystrophy” (The Board of Trustees of the University of Illinois, priority 2014, dated 2019).

Assays:
[1] = tested on: MBNL1-(CUG)16 complex; assay: EMSA inhibition of the MBNL1-(CUG)16 complex; type: biochemical; details: for Ki: KI=IC50×KD/[protein]total, read-out: KI, apparent inhibition constant, MBNL1-(CUG)16 complex
Procedure: FIG. 1A-B. Determination of inhibition constants, KI, by EMSA. (a) Representative gels showing the release of (CUG)16 at different ligand concentrations. Top band is the MBNL1-(CUG)16 complex, the bottom band is the free (CUG)16. (b) IC50 values were obtained by plotting the RNA fraction bound versus ligand concentrations. The apparent inhibition constant (KI) was calculated using the equation: KI=IC50×KD/[protein]total, where KD is the dissociation constant of the MBNL1-RNA complex and [protein] is at least 7-fold greater than the KD. Error bars represent standard deviation of three independent experiments.
An electrophoretic mobility shift assay (EMSA) was employed to determine the in vitro inhibition of MBNL1-rCUG^exp complex by monomer 1a and dimers 2a-b (FIG. 1). This study used (CUG)16, which can form a hairpin structure containing a maximum of 8 U-U mismatches. […] Likely, a 1:1 complex was formed. In this study, a truncated MBNL1 (1-272 amino acids) containing four zinc finger motifs of MBNL1 and a hexahistidine tag (C-terminus) was employed. This MBNL1 construct and the full-length MBNL1 have the similar affinities to rCUG repeats.
To determine the inhibition constant of bivalent ligands 2a and 2b, the MBNL1-(CUG)16 mixture, in which ca. 50% of the RNA is free, was incubated with various concentrations of ligand (FIG. 1a). The dimer concentrations were not raised to higher than 10 μM due to the aggregation on the gel at high concentrations. As the concentration of ligand increased, more RNA was released from the complex with MBNL protein. By fitting the plot of bound RNA fractions versus ligand concentrations with an appropriate equation, the IC50 value was determined (FIG. 1b).
(CUG)16 RNA was labeled with [γ-^32P]-ATP using T4 poly-nucleotide kinase (New England Biolabs). Labeled RNA was purified by phenol extraction and ethanol precipitation. Labeled RNA was heated at 95° C. for 5 min, then placed on ice for 10 min and diluted in protein binding buffer (175 mM NaCl, 5 mM MgCl2, 20 mM Tris-HCl (pH 8), 1.25 mM 2-mercapto-ethanol (BME), 12.5% glycerol, 2 mg/ml bovine serum albumin (BSA), 0.1 mg/ml heparin, 0.05% or 0.1% Triton X). For MBNL1-(CUG)16 binding study, MBNL1 was serially diluted by a factor of 3 in protein binding buffer. To each solution was added labeled RNA, so that the final concentration of RNA was 0.2 nM. The resulting mixtures were incubated at room temperature for 10 min and loaded onto a 6% polyacrylamide gel (80:1) at 4° C. The gel was run for 2 h at 180 V in Tris-Borate 0.5× buffer (pH 8.2-8.3). Gels were dried at 80° C. under high vacuum for 2 h, developed overnight in phosphor exposure cassette, and visualized on a Molecular Dynamics Storm PhosphorImager. The KD (1:1 stoichiometry assumption) was obtained by fitting the normalized fraction RNA bound versus the concentration of protein using the equation: Fraction RNA bound=Bmax×[MBNL1]total^h/(KD^h+MBNL1]total^h) where Bmax is maximum fraction RNA bound, h is a Hill slope. Protein concentration in reaction mixture was larger than 10-fold excess over RNA concentration. Data is illustrated in FIGS. 6 and 7.

[2] = tested on: HeLa cells; assay: SRB cytotoxicity assay; type: cell-based
Procedure: This finding indicates an advantage of the bisamidinium-based ligands over the acridine-containing ligands.
ITC, EMSA, confocal microscopy, IR splicing, and the reversal of rough-eye phenotype assays were conducted as previously described (Wong et al., J. Am. Chem. Soc. 2014, 136, 6355-6361). The cytotoxicity of 2a was accessed using a published protocol (Vichai et al., Sulforhodamine B colorimetric assay for cytotoxicity screening, Nat. Protoc. 2006, 1, 1112-1116).

[3] = biological target: (CUG)12; assay: Isothermal titration calorimetry (ITC) binding to (CUG)12; details: 25° C., read-out: KD, binding affinity toward (CUG)12
Procedure: The alkyne and azide moieties were chosen because of their small size, excellent stability, and ultimate bioorthogonality. […] This finding enables the rapid development of a wide range of functional derivatives of ligand 1a using the [3+2] alkyne-azide cycloaddition (‘click reaction’) of 1b and 1c.
The ligand stock solution (10 mM in water). MOPS buffer (100 mM; pH 7.0±0.2), and NaCl (5000 mM) were prepared. The ligand solution (1 mL) contained of 0.5 mM of ligand, 20 mM of MOPS buffer, and 150 mM of NaCl. The RNA solution (2 mL) contained 0.02 mM of RNA, 20 mM of MOPS buffer, and 150 mM of NaCl. The resulting RNA solution was heated in a water bath at 90° C. for 5 min, then allowed to cool to room temperature for 2 h.
ITC measurements were performed at 25° C. on a MicroCal VP-ITC calorimeter (Northampton, Mass.). A typical experiment consisted of titrating 10 μL of a ligand solution (500 μM) from a 250 μL syringe (stirred at 300 rpm) into a sample cell containing 1.42 mL of a RNA solution (10 μM) with total 28 injections. The initial delay prior to the first injection was 60 s. The duration of each injection was 24 s and the delay between injections was 300 s. […] Binding parameters such as the dissociation constant (KD), enthalpy change (ΔH), and entropy change (ΔS) were determined by fitting the experimental binding isotherms with various model. […]

[4] = earlier work; cited from earlier work

Compound	inhibitory power toward the MBNL1-rCUG^exp interaction relative to compound 1a (fold greater) [1]	IC50 ([1]; EMSA) [µM]	Ki ([1]; EMSA) [µM]	HeLa cell death ([2]; 100 μM, 96 h)	cellular toxicity ([2]; lower concentrations (below 100 μM))	Kd [3] [µM]	KI of 1a relative to that for 2a and 2b (fold higher) ([1]; EMSA, identical conditions) [fold]	cytotoxicity [4]
N=C(NCCCCNc1nc(N)nc(N)n1)c1ccc(C(=N)NCCCCNc2nc(N)nc(NCCCn3cc(CNc4nc(N)nc(NCCCCNC(=N)c5ccc(C(=N)NCCCCNc6nc(N)nc(N)n6)cc5)n4)nn3)n2)cc1 [Compound 2a]	ca. 1000 fold	0.29 ± 0.03	0.025 ± 0.008	ca. 10%	negligible cellular toxicity	–	–	–
N=C(NCCCCNc1nc(N)nc(N)n1)c1ccc(C(=N)NCCCCNc2nc(N)nc(N)n2)cc1 [Compound 1a]	–	189 ± 33	16 ± 6	–	–	8	~1000	low cytotoxicity
